Results from patent publication US10703764B2, “Benzopiperazine compositions as BET bromodomain inhibitors” (FORMA Therapeutics, Inc., priority 2013, dated 2020).
Where two headings read alike, the source gives them in different places.

What was measured:
[1] = molecular target: T1, BRD4 BD1 (Homo sapiens, UniProt O60885); experiment: AlphaScreen binding assay, BRD4 Bromodomain 1
T1 construct: made in house
Procedure, shortened: (§1)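 Compound dilution series were mixed with His-tagged BRD4 bromodomain and biotinylated tetra-acetylated H4 (1-21) peptide at pH 7.3 (BD1 and peptide at 50 nM, BD2 and peptide at 100 nM). Donor and acceptor beads were then added, and plates were equilibrated at least 1 h before reading. IC50 values were fitted with a four-parameter logistic model.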

[2] = molecular target: T2, BRD4 BD2 (Homo sapiens, UniProt O60885); experiment: AlphaScreen binding assay, BRD4 Bromodomain 2
T2 construct: made in house
Procedure, shortened: as §1

[3] = tested on: MV4-11 cells; experiment: Oncology cell growth assay (3-day proliferation, CellTiter-Glo); assay type: cell-based; details: Homo sapiens, AML cell line MV4-11, 72 hours, compounds grouped by IC50 range, read-out: MV4-11 IC50 (inhibition of proliferation, gIC50)
Procedure, shortened: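 Luminescence from CellTiter-Glo served as the growth read-out after MV4-11 cells (3000/well) were cultured with compound for 72 hours. Final concentrations spanned 10 to 0.0045 μM in 3-fold steps. gIC50 values were derived by four-parameter logistic fitting relative to DMSO and cell-free controls.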

Row | Structure (SMILES) | IC50 [1] [nM] | IC50 [2] [nM] | IC50 ([3]; MV4-11, 72 h) [nM] | IC50 [3] [nM]
1 | COc1ccc(-c2ccc3c(c2)N(C(=O)OC2CCOCC2)C[C@H](C)N3C(C)=O)cc1NS(C)(=O)=O [Example I-1272] | 100 to 1000 | 50 to 500 | 100 to 500 | –
2 | CC(=O)N1c2ccc(-c3cccc(NS(=O)(=O)N(C)C)c3)cc2N(C(=O)OC2CCCCC2)C[C@@H]1C [Example I-1273] | 100 to 1000 | 50 to 500 | 100 to 500 | –
3 | CC(=O)N1c2ccc(-c3cccc(NS(=O)(=O)N(C)C)c3)cc2N(C(=O)OC2CCOCC2)C[C@@H]1C [Example I-1274] | 100 to 1000 | 50 to 500 | 100 to 500 | –
4 | CC(=O)N1c2ccc(-c3cnn(C(C)(C)CO)c3)cc2N(C(=O)OC(C)C)C[C@@H]1C [Example I-1275] | 100 to 1000 | < 50 | 100 to 500 | –
5 | CC(=O)N1c2ccc(-c3cnn(CCS(C)(=O)=O)c3)cc2N(C(=O)Oc2cccnc2)C[C@@H]1C [Example I-1279] | 100 to 1000 | 50 to 500 | 100 to 500 | –
6 | CC(=O)N1c2ccc(-c3cnn(CCO)c3)cc2N(C(=O)Oc2cccnc2)C[C@@H]1C [Example I-1281] | 100 to 1000 | 50 to 500 | 100 to 500 | –
7 | CC(=O)N1c2ccc(-c3cnn(C(C)(C)CO)c3)cc2N(C(=O)Oc2cccnc2)C[C@@H]1C [Example I-1284] | 100 to 1000 | 50 to 500 | 100 to 500 | –
8 | CC(=O)N1c2ccc(-c3ccc(N4CCCS4(=O)=O)cc3)cc2N(C(=O)Oc2cccnc2)C[C@@H]1C [Example I-1286] | 100 to 1000 | 50 to 500 | 100 to 500 | –
9 | CC(=O)N1c2ccc(-c3ccc(N(C)S(C)(=O)=O)cc3)cc2N(C(=O)Oc2cccnc2)C[C@@H]1C [Example I-1292] | 100 to 1000 | 50 to 500 | 100 to 500 | –
10 | CC(=O)N1c2ccc(-c3cnn(C4CNC4)c3)cc2N(C(=O)Oc2cccnc2)C[C@@H]1C [Example I-1294] | 100 to 1000 | 50 to 500 | – | > 500
11 | CC(=O)N1c2ccc(-c3ccc(S(N)(=O)=O)c(F)c3)cc2N(C(=O)C2CC2)C[C@@H]1C [Example I-1297] | 1000 to 10000 | 50 to 500 | > 500 | –
12 | CC(=O)N1c2ccc(-c3ccc(S(N)(=O)=O)c(F)c3)cc2N(C(=O)OC(C)C)C[C@@H]1C [Example I-1298] | 1000 to 10000 | 50 to 500 | > 500 | –
13 | CC(=O)N1c2ccc(-c3ccc(S(=O)(=O)N(C)C)c(C)c3)cc2N(C(=O)OC(C)C)C[C@@H]1C [Example I-1299] | 100 to 1000 | 50 to 500 | 100 to 500 | –
14 | CC(=O)N1c2ccc(-c3ccc(S(=O)(=O)N(C)C)c(C)c3)cc2N(C(=O)C2CC2)C[C@@H]1C [Example I-1300] | 100 to 1000 | 50 to 500 | > 500 | –
15 | CC(=O)N1c2ccc(-c3cnn(C4CCOCC4)c3)cc2N(C(=O)OC2CCCCC2)C[C@@H]1C [Example I-1301] | < 100 | < 50 | < 100 | –
16 | CC(=O)N1c2ccc(-c3cnn(C4CCOCC4)c3)cc2N(C(=O)C2CC2)C[C@@H]1C [Example I-1302] | 100 to 1000 | < 50 | 100 to 500 | –
17 | CC(=O)N1c2ccc(-c3cnn(C4CCNCC4)c3)cc2N(C(=O)OC2CCCCC2)C[C@@H]1C [Example I-1303] | 100 to 1000 | 50 to 500 | < 100 | –

Row | Structure (SMILES) | IC50 [1] [nM] | IC50 [2] [nM] | IC50 ([3]; MV4-11, 72 h) [nM] | IC50 [3] [nM]
18 | CC(=O)N1c2ccc(-c3cnn(C4CNC4)c3)cc2N(C(=O)OC2CCCCC2)C[C@@H]1C [Example I-1304] | < 100 | < 50 | < 100 | –
19 | CC(=O)N1c2ccc(-c3cnn(C4CS(=O)(=O)C4)c3)cc2N(C(=O)C2CC2)C[C@@H]1C [Example I-1305] | 1000 to 10000 | < 50 | > 500 | –
20 | CC(=O)N1c2ccc(-c3cnn(C4CS(=O)(=O)C4)c3)cc2N(C(=O)OC(C)C)C[C@@H]1C [Example I-1306] | 100 to 1000 | 50 to 500 | > 500 | –
21 | CC(=O)N1c2ccc(-c3cnn(C4CS(=O)(=O)C4)c3)cc2N(C(=O)OC2CCCC2)C[C@@H]1C [Example I-1307] | 100 to 1000 | < 50 | 100 to 500 | –
22 | CC(=O)N1c2ccc(-c3cnn(C4CS(=O)(=O)C4)c3)cc2N(C(=O)OC2CCCCC2)C[C@@H]1C [Example I-1308] | 100 to 1000 | < 50 | 100 to 500 | –
23 | CC(=O)N1c2ccc(-c3cnn(C4CCCS(=O)(=O)C4)c3)cc2N(C(=O)C2CC2)C[C@@H]1C (stereo partly drawn) [Example I-1310] | 100 to 1000 | 50 to 500 | > 500 | –
24 | CC(=O)N1c2ccc(-c3cnn(C4CCCS(=O)(=O)C4)c3)cc2N(C(=O)OC(C)C)C[C@@H]1C (stereo partly drawn) [Example I-1311] | 100 to 1000 | 50 to 500 | 100 to 500 | –
25 | CC(=O)N1c2ccc(-c3cnn(C4CCCS(=O)(=O)C4)c3)cc2N(C(=O)OC2CCCCC2)C[C@@H]1C (stereo partly drawn) [Example I-1312] | 100 to 1000 | < 50 | 100 to 500 | –
26 | CC(=O)N1c2ccc(-c3ccc(NS(C)(=O)=O)cc3)cc2N(C(=O)Oc2ccccn2)C[C@@H]1C [Example I-1316] | 100 to 1000 | 50 to 500 | 100 to 500 | –
27 | CC(=O)N1c2ccc(-c3cnn(C4CC4)c3)cc2N(C(=O)Oc2ccccn2)C[C@@H]1C [Example I-1322] | 100 to 1000 | < 50 | < 100 | –
28 | COC(=O)N1c2ccc(-c3cnn(C4CC4)c3)cc2N(C(=O)Oc2ccccn2)C[C@@H]1C [Example I-1323] | 100 to 1000 | < 50 | 100 to 500 | –
29 | CC(=O)N1c2ccc(-c3ccc(N4CCCS4(=O)=O)cc3)cc2N(C(=O)Oc2ccccn2)C[C@@H]1C [Example I-1324] | 100 to 1000 | < 50 | 100 to 500 | –
30 | CC(=O)N1c2ccc(-c3cnn(CCC#N)c3)cc2N(C(=O)Oc2ccccn2)C[C@@H]1C [Example I-1326] | 100 to 1000 | 50 to 500 | 100 to 500 | –
31 | CC(=O)N1c2ccc(-c3ccc4c(c3)CCN4S(C)(=O)=O)cc2N(C(=O)Oc2ccccn2)C[C@@H]1C [Example I-1328] | 100 to 1000 | 50 to 500 | 100 to 500 | –
32 | CC(=O)N1c2ccc(-c3ccc(N(C)S(C)(=O)=O)cc3)cc2N(C(=O)Oc2ccccn2)C[C@@H]1C [Example I-1330] | 100 to 1000 | 50 to 500 | 100 to 500 | –
33 | CC(=O)N1c2ccc(-c3cnn(C4CCNCC4)c3)cc2N(C(=O)Oc2ccccn2)C[C@@H]1C [Example I-1332] | 100 to 1000 | < 50 | – | < 100
34 | CC(=O)N1c2ccc(-c3cnn(CCO)c3)cc2N(C(=O)Oc2ccccn2)C[C@@H]1C [Example I-1334] | 100 to 1000 | 50 to 500 | 100 to 500 | –
